The source of these data is article PMC11253539, “Structural and mechanistic insights into the transport of aristolochic acids and their active metabolites by human serum albumin” (The Journal of Biological Chemistry, 2024).

Where “and” joins values, the source holds several entries; their conditions need not be identical. Identical values can stand only once. Like-named read-outs stand apart in the source and are kept apart here.

Test [1] concerns the target T1, HSA (HSAA3782 and HSAA8763 mercaptoalbumins) (Homo sapiens, UniProt P02768).
T1 construct: two human serum albumin (HSA) samples derived from pooled human plasma; purchased Sigma Aldrich A3782; A8763; host or cells: pooled human plasma
Kind of test: HSA Trp214 fluorescence quenching assay. The format is binding. From the text:
Ligand-induced quenching of the intrinsic HSA fluorescence has been assessed by monitoring a single Trp^214 residue located within the IIA binding cavity to derive equilibrium dissociation constants (KD) for numerous endogenous and exogenous molecules including aristolochic acids ([51], [52]). […] Addressing this deficiency, we prepared mercaptoalbumins from HSAA3782 and HSAA8763, consisting of fatty acid-free and limited fatty acid-containing HSA, respectively. We subsequently employed these well-defined HSA samples to conduct comparative fluorescence quenching studies in the presence of AA-I, AA-II, and their respective metabolites while concurrently evaluating the impact of fatty acid content on relative binding affinities.
Equilibrium fluorescence spectra of monomeric HSA samples were collected on an ISS PC1 photon counting spectrophotometer. An excitation wavelength of 295 nm was employed for HSAA3782 and HSAA8763 to selectively monitor tryptophan and avoid contributions of tyrosine residues. The excitation and emission slits were set to 1 nm and 2 nm, respectively. Prior to initiating the experiment, a stock solution of each AA compound (i.e., AA-I, AA-II, AL-I-NOH, AL-II-NOH, AL-I-NOAc. and AL-I-NOSO3) was prepared in DMSO by serial dilution to a 100-fold excess of their final concentration employed in the quenching experiments. HSA samples were diluted to 0.5, 1.0, and 2.5 μM in 10 mM KPi buffer (pH 7.5) and divided into 1 ml aliquots in Eppendorf tubes. A 10 μl aliquot of each AA compound was added to the HSA solutions to achieve a 0.2 to 50 μM concentration range in 1% DMSO. Each AA-HSA mixture was allowed to equilibrate at room temperature for at least 5 min, transferred to a 10 mm × 5 mm quartz cuvette, and emission spectrum recorded over the wavelength range of 310 to 460 nm employing a 2 nm step interval. Following each measurement, the quartz cuvette was cleaned, and the experiment repeated with the next AA:HSA ratio. […] Peak emission intensities at 340 nm were employed to construct fluorescence titration profiles for each AA compound.
Fluorescence titration profiles of the HSA quenching assays were generated using SigmaPlot 13.0. When applicable, the mean and standard deviations obtained from 3 to 5 independent measurements are reported. […] Invoking the SigmaPlot software suite, we applied the following binding model ([87]): F=Ffree−(Ffree−Fbound)∗[…] where F represents the fluorescence signal observed at each ligand concentration (Lt) and Pt is the total protein concentration. Upon fitting, one obtains values of Ffree and Fbound that correspond to the fluorescence of unbound and fully bound HSA, respectively. The number of binding sites and their respective affinities has been determined for AA-I and AA-II interactions with HSA via application of isothermal titration calorimetry as described in the following section.

In test [2] the target is T2, HSA (defatted HSAA3782) (Homo sapiens, UniProt P02768).
T2 construct: two human serum albumin (HSA) samples derived from pooled human plasma; purchased Sigma Aldrich A3782; host or cells: pooled human plasma
Kind of test: Isothermal titration calorimetry of AA-HSA interactions. The format is binding. Particulars: for Ka (macroscopic association constant), Site 1 / Kd / Ka (macroscopic association constant), Site 2 / Ka (KA1), site 1 / Ka (KA2), site 2: two-site model; for Ka (KA1), site 1: site 1, 25 °C; for Ka (KA2), site 2: site 2, 25 °C; for ΔG°, Site 1 / ΔG°, Site 2: ΔG° = −RTlnKa, T = 298 K. From the text: We have assessed the binding affinities of AA-I and AA-II for HSAA3782 by conducting a series of ITC experiments. […] An initial analysis of the AA-HSA binding isotherms using conventional fitting programs provides a reasonable estimate for the binding stoichiometry of two AA ligands per HSA molecule. […] Given the challenges associated with baseline assignments, we subsequently employed the NITPIC/SEDPHAT/GUSSI software suite ([60]) to ensure unambiguous analysis of the binding isotherms. Singular value decomposition yields baseline-corrected association data that are analyzed via a two-site binding model to derive macroscopic affinities for AA-HSA interactions in accordance with the following relation: A+B+B↔[AB]+B↔ABB where A represents the HSA macromolecule and B represents ligand AA-I or AA-II. This binding model implies that both sites are occupied with all possible ligation states coexisting in equilibrium.
Binding parameters for the association of defatted HSAA3782 with AA-I and AA-II were determined calorimetrically employing a MicroCal VP-ITC instrument (Malvern Panalytical). Protein stock solutions (0.5–1.5 mM) were prepared by BME reduction to disrupt potential CyS34-CyS34 dimers and dialyzed against three 500 ml exchanges of 10 mM sodium phosphate buffer (pH 7.5). Aliquots of the respective AA ligand stocks were dissolved in protein dialysate and the final DMSO concentration adjusted to 2%. The HSA standard was prepared by diluting an appropriate aliquot in dialysate containing 2% DMSO to match the syringe solution contents. Each ITC experiment consists of thirty consecutive 10.0 μl injections during which the reaction heat is monitored and integrated over a 5-min interval under constant stirring conditions. The experimental protocol has been designed to ensure that there is at least a 15-fold excess of either AA-I or AA-II (75–200 μM) in the titration syringe relative to the initial HSA concentration (5–10 μM) in the reaction cell.
Binding isotherms acquired at 25 °C were generated by recording the integrated reaction heats normalized for AA concentration versus ligand:protein ratio. […] We subsequently applied the NITPIC/SEDPHAT/GUSSI suite of software programs ([60], [88]) to ensure unbiased baseline assignments and peak integrations that facilitated selection of an appropriate binding model to characterize this protein-ligand system. The SEDPHAT program affords significant flexibility by allowing implicit and explicit uncertainty corrections that facilitate assessment of incompetent binding species in the protein and/or ligand. A nonlinear least squares analysis of the resultant profiles invoking a symmetric two-site binding model yields an optimal fit of the isotherms and requisite macroscopic parameters for AA-HSA interactions.
(In general: In ITC the heat of successive injections is recorded.)

Test [3] concerns HSA. Also on record: method as in PMID 16413837. Particulars: numerous binding sites; cited from earlier work.
Setting [4] is: fatty acid-containing HSA, mean ± SD of 3 to 5 measurements, 10 mM KPi pH 7.5, read-out: KDapp (HSAA8763).
[5] abbreviates: fatty acid-free HSA, mean ± SD of 3 to 5 measurements, 10 mM KPi pH 7.5, read-out: KDapp (HSAA3782).
The mark [6] stands for this setting: ITC, Site 1, 10 mM NaPO4 pH 7.5, 25 °C.
[7] abbreviates: ITC, Site 2, 10 mM NaPO4 pH 7.5, 25 °C.

T2 sequence (P02768 25-609): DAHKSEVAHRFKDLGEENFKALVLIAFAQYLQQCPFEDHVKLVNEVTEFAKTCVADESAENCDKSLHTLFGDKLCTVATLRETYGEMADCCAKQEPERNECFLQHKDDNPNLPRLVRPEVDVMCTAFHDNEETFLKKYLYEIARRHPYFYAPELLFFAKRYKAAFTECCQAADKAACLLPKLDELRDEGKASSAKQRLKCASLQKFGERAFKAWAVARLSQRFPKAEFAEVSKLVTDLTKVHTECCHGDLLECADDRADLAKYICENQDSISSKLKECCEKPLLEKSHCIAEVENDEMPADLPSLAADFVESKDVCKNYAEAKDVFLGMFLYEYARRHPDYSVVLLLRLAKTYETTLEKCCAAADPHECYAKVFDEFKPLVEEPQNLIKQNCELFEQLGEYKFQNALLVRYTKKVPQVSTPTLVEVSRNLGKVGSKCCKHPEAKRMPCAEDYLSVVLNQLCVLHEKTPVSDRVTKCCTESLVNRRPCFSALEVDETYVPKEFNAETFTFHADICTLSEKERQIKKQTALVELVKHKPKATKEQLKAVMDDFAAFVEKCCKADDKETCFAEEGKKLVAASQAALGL
T1 sequence (P02768 25-609): as above

`COc1cccc2c1cc1c3c(cc4c(c32)OCO4)C(=O)N1O` [AL-I-NOH, N-hydroxyaristolactam I]: the results for the Kd in test [1] (setting [4]) and in test [1] (setting [5]) were 740 ± 60 nM and 650 ± 60 nM, respectively.

Regarding `COc1cccc2c1cc1c3c(cc4c(c32)OCO4)C(=O)N1OC(C)=O` [AL-I-NOAc], the Kd was determined as 590 ± 70 nM in test [1] (setting [4]) and 670 ± 130 nM in test [1] (setting [5]).

Take `O=C(O)c1cc2c(c3c1c([N+](=O)[O-])cc1ccccc13)OCO2` [AA-II, aristolochic acid II]: in test [2] (ITC, first of two sites, as given in abstract), the “association constant, first site” value was 8.4 10^5 M^−1. Also, in test [2] (ITC, second of two sites, as given in abstract), the “association constant, second site” value was 9.0 10^5 M^−1. For the same compound, the “Ka (macroscopic association constant), Site 1” value in test [2] (setting [6]) is reported as 0.84 ± 0.07 10^6 M^−1. Further, the Kd is 1190 ± 190 nM in test [2] (ITC, Site 1, 10 mM NaPO4 pH 7.5, 25 °C, read-out: KD, Site 1); 1110 ± 110 nM in test [2] (ITC, Site 2, 10 mM NaPO4 pH 7.5, 25 °C, read-out: KD, Site 2); 360 ± 30 nM in test [1] (setting [4]); 630 ± 100 nM in test [1] (setting [5]). In addition, the “Ka (macroscopic association constant), Site 2” value in test [2] (setting [7]) is listed as 0.90 ± 0.10 10^6 M^−1. For the same compound, the “Ka (KA1), site 1” value in test [2] (ITC) is 840000 M⁻¹. In test [2] (ITC), the “Ka (KA2), site 2” value is 900000 M⁻¹. Further, in test [2], the “ΔG°, Site 1” value is -8.10 ± 0.67 kcal/mol. The “ΔG°, Site 2” value in test [2] is -8.12 ± 0.82 kcal/mol.

For `COc1cccc2c1cc([N+](=O)[O-])c1c(C(=O)O)cc3c(c12)OCO3` [AA-I, aristolochic acid I], in test [2] (setting [6]), the “Ka (macroscopic association constant), Site 1” value is 1.5 10^6 M^−1 and 1.50 ± 0.18 10^6 M^−1. Also, the “Ka (macroscopic association constant), Site 2” value in test [2] (setting [7]) is 0.5 10^6 M^−1 and 0.54 ± 0.04 10^6 M^−1. In addition, in test [2] (ITC), the “Ka (KA1), site 1” value was determined as 1.5e+06 M⁻¹ and the “Ka (KA2), site 2” value worked out at 540000 M⁻¹. Further, the Kd in test [2] (KD, Site 1, ITC, Site 1, 10 mM NaPO4 pH 7.5, 25 °C) came out at 690 ± 80 nM. In test [2] (KD, Site 2, ITC, Site 2, 10 mM NaPO4 pH 7.5, 25 °C), this compound displayed a Kd of 1870 ± 120 nM. Further, in test [2], the “ΔG°, Site 1” value was -8.41 ± 1.00 kcal/mol and the “ΔG°, Site 2” value was -7.82 ± 0.58 kcal/mol. For the same compound, the Kd in test [1] came out at 430 ± 30 nM.

With `CCCCCCCCCCCCCC(=O)O` [myristic acid], in test [3], the “affinities for HSA binding sites” value is reported as 10^4 to 10^7 M^−1.
